Data taken from paper PMC6325200, “Effects of Microplate Type and Broth Additives on Microdilution MIC Susceptibility Assays” (Antimicrobial Agents and Chemotherapy, 2018).

Legend:
Assay in all cases: microbe, parasite or virus in culture
E. coli ATCC 25922 = settings: n = 2
Experimental: A positive control of a row of just the bacteria and a negative control of only the medium were included for every plate tested.
The compounds along with standard antibiotics were serially diluted 2-fold across the 96-well plates. […] A sample of each culture was then diluted 40-fold in fresh MH broth (in presence and absence of Tween) and incubated at 37°C for 2 to 3 h.
For experiments in the presence of surfactant, 2% beractant (25 mg/ml) was added to the mid-log-phase cultures and mixed gently and added to all the 96-well plates. For experiments in the presence of serum, a mixture of 50% of human serum along with 50% MHB was prepared and used throughout the experiment.

A. baumannii ATCC 19606 = settings: Acinetobacter baumannii, n = 2
Method in brief: (§1)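 MH broth with or without Tween received a 40-fold dilution of each culture, held at 37°C for 2–3 h. Twofold dilution series of the compounds and standard antibiotics are run in 96-well plates.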

K. pneumoniae ATCC 13883 = settings: Klebsiella pneumoniae, n = 2
Method in brief: as §1

P. aeruginosa ATCC 10145 = settings: Pseudomonas aeruginosa, n = 2
Method in brief: as §1

Measured: MIC

Cc1onc(-c2ccccc2)c1C(=O)N[C@@H]1C(=O)N2[C@@H]1SC(C)(C)[C@@H]2C(=O)O [Oxacillin, oxacillin]
> 64 mg/L: E. coli ATCC 25922; Corning NBS plate, MHB +0.002% T80, no further additive | E. coli ATCC 25922; Corning NBS plate, MHB −T80, no additive | E. coli ATCC 25922; Corning PS plate, MHB +0.002% T80, no further additive | E. coli ATCC 25922; Corning PS plate, MHB −T80, no additive | E. coli ATCC 25922; Corning TC plate, MHB +0.002% T80, no further additive | E. coli ATCC 25922; Corning TC plate, MHB −T80, no additive | E. coli ATCC 25922; Escherichia coli, ATCC25922, 24 h, Corning NBS, MH + 2% LHB, 2% LS | E. coli ATCC 25922; Escherichia coli, ATCC25922, 24 h, Corning NBS, MH + 2% LHB, 50% HS | E. coli ATCC 25922; Escherichia coli, ATCC25922, 24 h, Corning NBS, MH + 2% LHB, no additive | E. coli ATCC 25922; Escherichia coli, ATCC25922, 24 h, Corning NBS, MH + T80, 2% LS | E. coli ATCC 25922; Escherichia coli, ATCC25922, 24 h, Corning NBS, MH + T80, 50% HS | E. coli ATCC 25922; Escherichia coli, ATCC25922, 24 h, Corning PS, MH + 2% LHB, 2% LS | E. coli ATCC 25922; Escherichia coli, ATCC25922, 24 h, Corning PS, MH + 2% LHB, 50% HS | E. coli ATCC 25922; Escherichia coli, ATCC25922, 24 h, Corning PS, MH + 2% LHB, no additive | E. coli ATCC 25922; Escherichia coli, ATCC25922, 24 h, Corning PS, MH + T80, 2% LS | E. coli ATCC 25922; Escherichia coli, ATCC25922, 24 h, Corning PS, MH + T80, 50% HS | E. coli ATCC 25922; Escherichia coli, ATCC25922, 24 h, Corning TC, MH + 2% LHB, 2% LS | E. coli ATCC 25922; Escherichia coli, ATCC25922, 24 h, Corning TC, MH + 2% LHB, 50% HS | E. coli ATCC 25922; Escherichia coli, ATCC25922, 24 h, Corning TC, MH + 2% LHB, no additive | E. coli ATCC 25922; Escherichia coli, ATCC25922, 24 h, Corning TC, MH + T80, 2% LS | E. coli ATCC 25922; Escherichia coli, ATCC25922, 24 h, Corning TC, MH + T80, 50% HS | E. coli ATCC 25922; Escherichia coli, ATCC25922, 24 h, Trek PS, MH + 2% LHB, 2% LS | E. coli ATCC 25922; Escherichia coli, ATCC25922, 24 h, Trek PS, MH + 2% LHB, 50% HS | E. coli ATCC 25922; Escherichia coli, ATCC25922, 24 h, Trek PS, MH + 2% LHB, no additive | E. coli ATCC 25922; Escherichia coli, ATCC25922, 24 h, Trek PS, MH + T80, 2% LS | E. coli ATCC 25922; Escherichia coli, ATCC25922, 24 h, Trek PS, MH + T80, 50% HS | E. coli ATCC 25922; Escherichia coli, ATCC25922, Corning NBS plate, MHB +0.002% T80, no further additive | E. coli ATCC 25922; Escherichia coli, ATCC25922, Corning NBS plate, MHB −T80, no additive | E. coli ATCC 25922; Escherichia coli, ATCC25922, Corning NBS, MH, 2% LS | E. coli ATCC 25922; Escherichia coli, ATCC25922, Corning NBS, MH, 50% HS | E. coli ATCC 25922; Escherichia coli, ATCC25922, Corning PS plate, MHB +0.002% T80, no further additive | E. coli ATCC 25922; Escherichia coli, ATCC25922, Corning PS plate, MHB −T80, no additive | E. coli ATCC 25922; Escherichia coli, ATCC25922, Corning PS, MH, 2% LS | E. coli ATCC 25922; Escherichia coli, ATCC25922, Corning PS, MH, 50% HS | E. coli ATCC 25922; Escherichia coli, ATCC25922, Corning TC plate, MHB +0.002% T80, no further additive | E. coli ATCC 25922; Escherichia coli, ATCC25922, Corning TC plate, MHB −T80, no additive | E. coli ATCC 25922; Escherichia coli, ATCC25922, Corning TC, MH, 2% LS | E. coli ATCC 25922; Escherichia coli, ATCC25922, Corning TC, MH, 50% HS | E. coli ATCC 25922; Escherichia coli, ATCC25922, Nunc PS plate, MHB +0.002% T80 | E. coli ATCC 25922; Escherichia coli, ATCC25922, Nunc PS plate, MHB −T80 | E. coli ATCC 25922; Escherichia coli, ATCC25922, Nunc U TC plate, MHB +0.002% T80 | E. coli ATCC 25922; Escherichia coli, ATCC25922, Nunc U TC plate, MHB −T80 | E. coli ATCC 25922; Escherichia coli, ATCC25922, Nunc flat TC plate, MHB +0.002% T80 | E. coli ATCC 25922; Escherichia coli, ATCC25922, Nunc flat TC plate, MHB −T80 | E. coli ATCC 25922; Escherichia coli, ATCC25922, Trek PS plate, MHB +0.002% T80, no further additive | E. coli ATCC 25922; Escherichia coli, ATCC25922, Trek PS plate, MHB −T80, no additive | E. coli ATCC 25922; Escherichia coli, ATCC25922, Trek PS, MH, 2% LS | E. coli ATCC 25922; Escherichia coli, ATCC25922, Trek PS, MH, 50% HS | A. baumannii ATCC 19606; ATCC19606, Corning NBS, MHB +T80 | A. baumannii ATCC 19606; ATCC19606, Corning NBS, MHB -T80 | A. baumannii ATCC 19606; ATCC19606, Corning PS, MHB +T80 | A. baumannii ATCC 19606; ATCC19606, Corning PS, MHB -T80 | A. baumannii ATCC 19606; ATCC19606, Corning TC, MHB +T80 | A. baumannii ATCC 19606; ATCC19606, Corning TC, MHB -T80 | K. pneumoniae ATCC 13883; ATCC13883, Corning NBS, MHB +T80 | K. pneumoniae ATCC 13883; ATCC13883, Corning NBS, MHB -T80 | K. pneumoniae ATCC 13883; ATCC13883, Corning PS, MHB +T80 | K. pneumoniae ATCC 13883; ATCC13883, Corning PS, MHB -T80 | K. pneumoniae ATCC 13883; ATCC13883, Corning TC, MHB +T80 | K. pneumoniae ATCC 13883; ATCC13883, Corning TC, MHB -T80 | P. aeruginosa ATCC 10145; ATCC10145, Corning NBS, MHB +T80 | P. aeruginosa ATCC 10145; ATCC10145, Corning NBS, MHB -T80 | P. aeruginosa ATCC 10145; ATCC10145, Corning PS, MHB +T80 | P. aeruginosa ATCC 10145; ATCC10145, Corning PS, MHB -T80 | P. aeruginosa ATCC 10145; ATCC10145, Corning TC, MHB +T80 | P. aeruginosa ATCC 10145; ATCC10145, Corning TC, MHB -T80
